In patent publication US9890147B2 (BAYER PHARMA AKTIENGESELLSCHAFT, priority 2012, dated 2018):

Legend:
MV4-11 cells = assay: Cell proliferation assay (alamarBlue), MV4-11; type: cell-based; details: Homo sapiens, 72 hours incubation, inhibition of cell proliferation
In short: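 Cells seeded at 5000/well in RPMI1640 + 10% FCS, incubated overnight at 37° C, then treated with compound (1E-5 to 1E-8 M) for 72 h at 37° C. Viability by alamarBlue fluorescence (ex 530/em 590 nm); pre-treatment readings subtracted, IC50 derived versus buffer-treated cells.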

Caov-3 cells = assay: Cell proliferation assay (alamarBlue), Caov-3; type: cell-based; details: Homo sapiens; inhibition of cell proliferation, Caov-3 (ovarian carcinoma), 96 hours
In short: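 Caov-3 (MEM Earle's, 10% FCS, 2000 cells/well) and MDA-MB-231 (DMEM/Ham's F12, 10% FCS, 4000 cells/well) were treated after overnight attachment with 1E-5 to 1E-8 M compound. Caov-3 exposure was 96 h. alamarBlue fluorescence (ex 530, em 590 nm) was read after background subtraction of day-0 values, and IC50 calculated versus buffer-treated cells.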

LOX-IMVI cells = assay: Cell proliferation assay (alamarBlue), LOX-IMVI; type: cell-based; details: Homo sapiens, 72 hours incubation, inhibition of cell proliferation
In short: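 Cells seeded at 1000/well in RPMI1640 with 10% FCS, incubated overnight at 37° C, then treated with dilutions from 1E-5 to 1E-8 M for 72 h. Viability read by alamarBlue fluorescence (ex 530/em 590 nm); pre-treatment values subtracted and compared with buffer-only cells to derive IC50.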

LAPC-4 cells = assay: Cell proliferation assay (alamarBlue), LAPC-4; type: cell-based; details: Homo sapiens, LAPC4; inhibition of cell proliferation, LAPC-4 (prostate cancer), 1 nM methyltrienolone, 168 hours
MDA-MB-231 cells = assay: Cell proliferation assay (alamarBlue), MDA-MB-231; type: cell-based; details: Homo sapiens; inhibition of cell proliferation, MDA-MB-231 (breast carcinoma), 96 hours
Experimental: In accordance with the invention, the capability of the substances to inhibit cell proliferation was determined Cell viability was determined using the alamarBlue® reagent (Invitrogen) in a Victor X3 Multilabel Reader (Perkin Elmer). The excitation wavelength was 530 nm and the emission wavelenth […].
The MDA-MB-231 cells (DSMZ, ACC 732) were sown at a concentration of 4000 cells/well in 100 μl growth medium (DMEM/Ham's F12 medium, 10% FCS) on 96-well microtitre plates. The Caov-3 cells (ATCC, HTB-75) were sown at a concentration of 2000 cells/well in 100 μl growth medium (MEM Earle's medium, 10% FCS) on 96-well microtitre plates.
After an overnight incubation at 37° C., the fluorescence values (CI values) were determined. The plates were then treated with various substance dilutions (1E-5 M, 3E-6 M, 1E-6M, 3E-7 M, 1E-7 M, 3E-8 M, 1E-8 M) and incubated at 37° C. for 72 (MV4-11-, LOX-IMVI cells), 96 (MOLM-13-, B16F10-, MDA-MB-431-, Caov-3 cells), 120 (MOLP-8-, KMS-12-PE cells) or 168 (LAPC-4 cells) hours. The fluorescence values (CO values) were then determined. For the data analysis, the CI values were subtracted from the CO values and the results were compared between cells treated with different dilutions of the substance or with buffer solution only. These were used to calculate the IC 50 values (substance concentration required for 50% inhibition of cell proliferation).

MOLP-8 cells = assay: Cell proliferation assay (alamarBlue), MOLP-8; type: cell-based; details: Homo sapiens, 120 hours incubation, inhibition of cell proliferation
In short: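 MOLP-8 cells in RPMI1640 with 20% FCS, 4000 cells/well, treated overnight after seeding with substance at 1E-5 to 1E-8 M for 120 h at 37° C. Viability read by alamarBlue fluorescence (ex 530, em 590); pre-treatment values subtracted, compared with buffer-only cells to derive IC50.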

BRD4 (BD1) = target: T1, BRD4 (BD1) (Homo sapiens, UniProt O60885); assay: Binding assay BRD4/acetylated peptide H4 (TR-FRET protein-protein interaction assay)
T1 construct: with relatively long constructs also being possible, preferably amino acids 44-168; made in house; host or cells: E. coli
In short: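 His6-BRD4 BD1 (aa 67-152, E. coli), usually 10 nM, with biotinylated tetra-acetylated H4 peptide in HEPES pH 7.5 buffer; 11 compound concentrations 0.1 nM–20 μM in duplicate, 10 min preincubation, 1 h at 22 °C then ≥3 h at 4 °C. TR-FRET 665/620 ratio; IC50 by 4-parameter fit.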

B16F10 cells = assay: Cell proliferation assay (alamarBlue), B16F10; type: cell-based; details: Mus musculus, B16-F10, 96 hours incubation, inhibition of cell proliferation
In short: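 alamarBlue fluorescence (ex 530/em 590 nm) read after overnight seeding at 300-500 cells/well in DMEM + 10% FCS, then after 96 h at 37 °C with compound at 1E-8 to 1E-5 M. Baseline subtracted from endpoint, compared with buffer-treated cells; IC50 = concentration giving 50% proliferation inhibition.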

KMS-12-PE cells = assay: Cell proliferation assay (alamarBlue), KMS-12-PE; type: cell-based; details: Homo sapiens, 120 hours incubation, inhibition of cell proliferation
In short: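 KMS-12-PE myeloma cells in RPMI1640 with 20% FCS were exposed to compound (1E-5 to 1E-8 M) for 120 h at 37° C. AlamarBlue fluorescence (ex 530, em 590 nm) read before and after treatment; the difference versus buffer-treated cells gave IC50.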

MOLM-13 cells = assay: Cell proliferation assay (alamarBlue), MOLM-13; type: cell-based; details: Homo sapiens, 96 hours incubation, inhibition of cell proliferation
In short: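 Cells in RPMI1640/10% FCS read by alamarBlue fluorescence (ex 530, em 590 nm) after overnight 37 °C incubation, then treated at 1E-5 to 1E-8 M for 96 h. Pre-treatment values subtracted from endpoint values and compared with buffer-only wells; IC50 is 50% proliferation inhibition.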

Row | SMILES | IC50 (MV4-11 cells) [nM] | IC50 (Caov-3 cells) [nM] | IC50 (LOX-IMVI cells) [nM] | IC50 (LAPC-4 cells) [nM] | IC50 (MDA-MB-231 cells) [nM] | IC50 (MOLP-8 cells) [nM] | IC50 (BRD4 (BD1)) [nM] | IC50 (B16F10 cells) [nM] | IC50 (KMS-12-PE cells) [nM] | IC50 (MOLM-13 cells) [nM]
1 | CNC(=O)N1N=C(c2ccc(N3CCN(C)CC3)cc2)c2cc(OC)c(OC)cc2C[C@@H]1C [Example 127.1, (4S)-7,8-Dimethoxy-N,4-dimethyl-1-[4-(4-methylpiperazin-1-yl)phenyl]-4,5-dihydro-3H-2,3-benzodiazepine-3-carboxamide] | 70 | 170 | 290 | 40 | 130 | 60 | 50 | 100 | 90 | 110
2 | CNC(=O)N1N=C(c2ccc(N3CCC(O)CC3)cc2)c2cc(OC)c(OC)cc2C[C@@H]1C [Example 130.1, (4S)-1-[4-(4-hydroxypiperidin-1-yl)phenyl]-7,8-dimethoxy-N,4-dimethyl-4,5-dihydro-3H-2,3-benzodiazepine-3-carboxamide] | 50 | 3 | 190 | 50 | 140 | 50 | 20 | 100 | 70 | 70
